Results as given in US11542313B2, “Incretin analogs and uses thereof” (Eli Lilly and Company, priority 2017, dated 2023).
*1 amine or outer side, *2 acyl side, *3 side chain or, on linkers, in order; H or OH if unused. Where a SMILES comes first, the peptide text is derived from it. Side-chain parts run from the residue outwards. [ ]: non-standard residue; d: D form. The star is where a group is joined. C20 diacid = O=C(O)CCCCCCCCCCCCCCCCCCC(=O)*; γGlu = O=C(O)[C@H](CCC(=O)[*:2])N[*:1]; αMeL = CC(C)C[C@](C)(N)C(=O)O; AEEA = NCCOCCOCC(=O)O; Aib = CC(C)(N)C(=O)O

Legend:
[1] = molecular target: T1, human GIP receptor (GIPR) (Homo sapiens, UniProt P48546); experiment: Radioligand competition binding (SPA), human GIPR membranes
T1 construct: expressed in transfected cells; host or cells: HEK293 (membranes)
T1 sequence (P48546 22-466): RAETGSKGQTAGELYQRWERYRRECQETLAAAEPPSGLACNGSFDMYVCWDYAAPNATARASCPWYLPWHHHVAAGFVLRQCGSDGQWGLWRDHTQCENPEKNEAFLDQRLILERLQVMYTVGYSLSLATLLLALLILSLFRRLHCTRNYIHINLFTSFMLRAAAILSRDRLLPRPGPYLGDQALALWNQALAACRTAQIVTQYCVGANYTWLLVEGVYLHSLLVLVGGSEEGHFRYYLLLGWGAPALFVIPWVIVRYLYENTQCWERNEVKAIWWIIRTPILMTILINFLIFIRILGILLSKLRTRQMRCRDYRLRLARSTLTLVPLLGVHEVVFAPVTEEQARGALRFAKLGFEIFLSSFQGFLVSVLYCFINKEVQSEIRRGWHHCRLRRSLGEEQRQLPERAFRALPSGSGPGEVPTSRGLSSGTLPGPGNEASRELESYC
Source text: (§1) Radioligand competition binding assays are run to determine the equilibrium dissociation constant for exemplary compounds and comparator molecules.
(§2) Competition curves are plotted as the percent specific inhibition (y-axis) versus log concentration of compound (x-axis) and analyzed using a four parameter nonlinear regression fit with variable slope (ABase or Genedata).

[2] = molecular target: T2, human glucagon receptor (GcgR) (Homo sapiens, UniProt P47871); experiment: Radioligand competition binding (SPA), human GcgR membranes
T2 construct: expressed in transfected cells; host or cells: HEK293 (membranes)
Source text: as §1, §2

GLP-1 receptor (GLP-1R) = molecular target: T3, GLP-1 receptor (GLP-1R) (Homo sapiens, UniProt P43220); experiment: Radioligand competition binding (SPA), human GLP-1R membranes
T3 construct: expressed in transfected cells; host or cells: HEK293 (membranes)
Source text: as §1, §2

[3] = Pharmacokinetics in male Sprague Dawley rats; conditions: for CL/F / Tmax / half-life: male, Sprague-Dawley, rat, plasma, sc, 100 nmol/kg; for AUCINF_D_obs / Cmax/D: single subcutaneous 100 nMol/kg, male Sprague Dawley rats, n = 3
Procedure: The pharmacokinetics of the exemplary analogs are evaluated following a single subcutaneous administration of 100 nM/kg to male Sprague Dawley rats. Blood samples are collected over 120 hours, and resulting individual plasma concentrations are used to calculate pharmacokinetic parameters. Peptide plasma (K3 EDTA) concentrations are determined using a qualified LC/MS method that measured the intact mass of the analog. Each peptide and an analog as an internal standard are extracted from 100% specie specified plasma using methanol with 0.1% formic acid. A Thermo Q-Exactive, High Resolution Instrument, and a Thermo Easy Spray PepMap are combined for LC/MS detection.

T3 sequence (P43220 24-463): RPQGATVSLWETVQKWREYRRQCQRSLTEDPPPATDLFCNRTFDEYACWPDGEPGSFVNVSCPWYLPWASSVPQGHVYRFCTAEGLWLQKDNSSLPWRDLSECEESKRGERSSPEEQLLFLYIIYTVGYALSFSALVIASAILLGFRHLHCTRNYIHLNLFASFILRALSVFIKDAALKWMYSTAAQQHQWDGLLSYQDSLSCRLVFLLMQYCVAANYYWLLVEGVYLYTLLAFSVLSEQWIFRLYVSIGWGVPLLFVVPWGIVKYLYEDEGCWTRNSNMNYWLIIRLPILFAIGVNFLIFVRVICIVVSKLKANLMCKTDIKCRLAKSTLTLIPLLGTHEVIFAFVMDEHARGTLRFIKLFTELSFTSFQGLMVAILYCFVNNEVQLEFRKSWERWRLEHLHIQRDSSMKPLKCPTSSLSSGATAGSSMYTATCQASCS
T2 sequence (P47871 26-477): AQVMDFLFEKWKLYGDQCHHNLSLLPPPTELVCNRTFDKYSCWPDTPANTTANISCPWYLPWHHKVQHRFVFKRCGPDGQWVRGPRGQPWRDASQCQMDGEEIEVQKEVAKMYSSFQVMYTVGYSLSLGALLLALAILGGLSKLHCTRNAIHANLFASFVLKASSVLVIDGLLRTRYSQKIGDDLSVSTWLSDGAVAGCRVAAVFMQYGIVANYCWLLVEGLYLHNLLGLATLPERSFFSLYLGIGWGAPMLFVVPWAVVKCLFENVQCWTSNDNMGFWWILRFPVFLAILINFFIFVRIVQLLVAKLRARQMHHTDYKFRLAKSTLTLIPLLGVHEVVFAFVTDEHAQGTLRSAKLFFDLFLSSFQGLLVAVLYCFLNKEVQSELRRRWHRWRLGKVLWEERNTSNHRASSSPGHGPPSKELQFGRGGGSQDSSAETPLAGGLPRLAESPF

Structure (SMILES)	Ki [1]	Ki [2]	Ki (GLP-1 receptor (GLP-1R))	CL/F [3]	Tmax [3]	half-life [3]	AUCINF_D_obs [3]	Cmax/D [3]
CC[C@H](C)[C@H](NC(=O)[C@H](Cc1ccccc1)NC(=O)[C@H](C)NC(=O)[C@](C)(CCCCN)NC(=O)[C@H](CCC(N)=O)NC(=O)[C@H](C)NC(=O)[C@H](CCCCNC(=O)COCCOCCNC(=O)COCCOCCNC(=O)CC[C@H](NC(=O)CCCCCCCCCCCCCCCCCCC(=O)O)C(=O)O)NC(=O)[C@H](CCCCN)NC(=O)[C@H](CC(=O)O)NC(=O)[C@H](CC(C)C)NC(=O)[C@](C)(CC(C)C)NC(=O)[C@@H](NC(=O)[C@H](CO)NC(=O)[C@H](Cc1ccc(O)cc1)NC(=O)[C@H](CC(=O)O)NC(=O)[C@H](CO)NC(=O)[C@@H](NC(=O)[C@H](Cc1ccccc1)NC(=O)[C@@H](NC(=O)CNC(=O)[C@H](CCC(N)=O)NC(=O)C(C)(C)NC(=O)[C@@H](N)Cc1ccc(O)cc1)[C@@H](C)O)[C@@H](C)O)[C@@H](C)CC)C(=O)N[C@@H](CCC(=O)O)C(=O)N[C@@H](Cc1ccc(O)cc1)C(=O)N[C@@H](CC(C)C)C(=O)N[C@@H](CC(C)C)C(=O)N[C@@H](CCC(=O)O)C(=O)NCC(=O)NCC(=O)N1CCC[C@H]1C(=O)N[C@@H](CO)C(=O)N[C@@H](CO)C(=O)NCC(=O)N[C@@H](C)C(=O)N1CCC[C@H]1C(=O)N1CCC[C@H]1C(=O)N1CCC[C@H]1C(=O)N[C@@H](CO)C(N)=O [Example 3]	0.0446 nM	12 nM	6.06 nM	6.9 mL/h/kg	16 h	19.2 h	146 hr*kg*nmol/L/nmol	2.5 kg*nmol/L/nmol
CC[C@H](C)[C@H](NC(=O)[C@H](Cc1ccccc1)NC(=O)[C@H](C)NC(=O)[C@H](CCC(N)=O)NC(=O)[C@H](C)NC(=O)[C@H](C)NC(=O)[C@H](CCCCNC(=O)COCCOCCNC(=O)COCCOCCNC(=O)CC[C@H](NC(=O)CCCCCCCCCCCCCCCCCCC(=O)O)C(=O)O)NC(=O)[C@H](CCCCN)NC(=O)[C@H](CC(=O)O)NC(=O)[C@H](CC(C)C)NC(=O)[C@](C)(CC(C)C)NC(=O)[C@@H](NC(=O)[C@H](CO)NC(=O)[C@H](Cc1ccc(O)cc1)NC(=O)[C@H](CC(=O)O)NC(=O)[C@H](CO)NC(=O)[C@@H](NC(=O)[C@H](Cc1ccccc1)NC(=O)[C@@H](NC(=O)CNC(=O)[C@H](CCC(N)=O)NC(=O)C(C)(C)NC(=O)[C@@H](N)Cc1ccc(O)cc1)[C@@H](C)O)[C@@H](C)O)[C@@H](C)CC)C(=O)N[C@@H](CCC(=O)O)C(=O)N[C@@H](Cc1ccc(O)cc1)C(=O)N[C@@H](CC(C)C)C(=O)N[C@@H](CC(C)C)C(=O)N[C@@H](CCC(=O)O)C(=O)NCC(=O)NCC(=O)N1CCC[C@H]1C(=O)N[C@@H](CO)C(=O)N[C@@H](CO)C(=O)NCC(=O)N[C@@H](C)C(=O)N1CCC[C@H]1C(=O)N1CCC[C@H]1C(=O)N1CCC[C@H]1C(=O)N[C@@H](CO)C(N)=O [Example 6] (H-Y[Aib]QGTFTSDYSI[αMeL]LDKK([AEEA-AEEA-γGlu-C20 diacid])AAQAFIEYLLEGGPSSGAPPPS-NH2; N-terminus assumed)	0.249 nM	0.835 nM	36.7 nM					
CC[C@H](C)[C@H](NC(=O)[C@H](Cc1ccccc1)NC(=O)[C@H](C)NC(=O)[C@H](Cc1c[nH]cn1)NC(=O)[C@H](CCC(N)=O)NC(=O)[C@H](C)NC(=O)[C@H](CCCCNC(=O)COCCOCCNC(=O)COCCOCCNC(=O)CC[C@H](NC(=O)CCCCCCCCCCCCCCCCCCC(=O)O)C(=O)O)NC(=O)[C@H](CCCCN)NC(=O)[C@H](CC(=O)O)NC(=O)[C@H](CC(C)C)NC(=O)[C@](C)(CC(C)C)NC(=O)[C@@H](NC(=O)[C@H](CO)NC(=O)[C@H](Cc1ccc(O)cc1)NC(=O)[C@H](CC(=O)O)NC(=O)[C@H](CO)NC(=O)[C@@H](NC(=O)[C@H](Cc1ccccc1)NC(=O)[C@@H](NC(=O)CNC(=O)[C@H](CCC(N)=O)NC(=O)C(C)(C)NC(=O)[C@@H](N)Cc1ccc(O)cc1)[C@@H](C)O)[C@@H](C)O)[C@@H](C)CC)C(=O)N[C@@H](CCC(=O)O)C(=O)N[C@@H](Cc1ccc(O)cc1)C(=O)N[C@@H](CC(C)C)C(=O)N[C@@H](CC(C)C)C(=O)N[C@@H](CCC(=O)O)C(=O)NCC(=O)NCC(=O)N1CCC[C@H]1C(=O)N[C@@H](CO)C(=O)N[C@@H](CO)C(=O)NCC(=O)N[C@@H](C)C(=O)N1CCC[C@H]1C(=O)N1CCC[C@H]1C(=O)N1CCC[C@H]1C(=O)N[C@@H](CO)C(N)=O [Example 7] (H-Y[Aib]QGTFTSDYSI[αMeL]LDKK([AEEA-AEEA-γGlu-C20 diacid])AQHAFIEYLLEGGPSSGAPPPS-NH2)	0.11 nM	16.3 nM	21.4 nM					
CC[C@H](C)[C@H](NC(=O)[C@H](Cc1ccccc1)NC(=O)[C@H](C)NC(=O)[C@H](Cc1c[nH]cn1)NC(=O)[C@H](CCC(N)=O)NC(=O)[C@H](C)NC(=O)[C@H](CCCCNC(=O)COCCOCCNC(=O)CC[C@H](NC(=O)CCCCCCCCCCCCCCCCCCC(=O)O)C(=O)O)NC(=O)[C@H](CCCCN)NC(=O)[C@H](CC(=O)O)NC(=O)[C@H](CC(C)C)NC(=O)[C@](C)(CC(C)C)NC(=O)[C@@H](NC(=O)[C@H](CO)NC(=O)[C@H](Cc1ccc(O)cc1)NC(=O)[C@H](CC(=O)O)NC(=O)[C@H](CO)NC(=O)[C@@H](NC(=O)[C@H](Cc1ccccc1)NC(=O)[C@@H](NC(=O)CNC(=O)[C@H](CCC(N)=O)NC(=O)C(C)(C)NC(=O)[C@@H](N)Cc1ccc(O)cc1)[C@@H](C)O)[C@@H](C)O)[C@@H](C)CC)C(=O)N[C@@H](CCC(=O)O)C(=O)N[C@@H](Cc1ccc(O)cc1)C(=O)N[C@@H](CC(C)C)C(=O)N[C@@H](CC(C)C)C(=O)N[C@@H](CCC(=O)O)C(=O)NCC(=O)NCC(=O)N1CCC[C@H]1C(=O)N[C@@H](CO)C(=O)N[C@@H](CO)C(=O)NCC(=O)N[C@@H](C)C(=O)N1CCC[C@H]1C(=O)N1CCC[C@H]1C(=O)N1CCC[C@H]1C(=O)N[C@@H](CO)C(N)=O [Example 10] (H-Y[Aib]QGTFTSDYSI[αMeL]LDKK([AEEA-γGlu-C20 diacid])AQHAFIEYLLEGGPSSGAPPPS-NH2; N-terminus assumed)	0.118 nM	7.37 nM	12 nM	4.9 mL/h/kg	24 h	23.4 h	203.5 hr*kg*nmol/L/nmol	3.1 kg*nmol/L/nmol
CC[C@H](C)[C@H](NC(=O)[C@H](Cc1ccccc1)NC(=O)[C@H](C)NC(=O)C(C)(C)NC(=O)[C@H](CCC(N)=O)NC(=O)[C@H](C)NC(=O)[C@H](CCCCNC(=O)COCCOCCNC(=O)COCCOCCNC(=O)CC[C@H](NC(=O)CCCCCCCCCCCCCCCCCCC(=O)O)C(=O)O)NC(=O)[C@H](CCCCN)NC(=O)[C@H](CC(=O)O)NC(=O)[C@H](CC(C)C)NC(=O)[C@](C)(CC(C)C)NC(=O)[C@@H](NC(=O)[C@H](CO)NC(=O)[C@H](Cc1ccc(O)cc1)NC(=O)[C@H](CC(=O)O)NC(=O)[C@H](CO)NC(=O)[C@@H](NC(=O)[C@H](Cc1ccccc1)NC(=O)[C@@H](NC(=O)CNC(=O)[C@H](CCC(N)=O)NC(=O)C(C)(C)NC(=O)[C@@H](N)Cc1ccc(O)cc1)[C@@H](C)O)[C@@H](C)O)[C@@H](C)CC)C(=O)N[C@@H](CCC(=O)O)C(=O)N[C@@H](Cc1ccc(O)cc1)C(=O)N[C@@H](CC(C)C)C(=O)N[C@@H](CC(C)C)C(=O)N[C@@H](CCC(=O)O)C(=O)NCC(=O)NCC(=O)N1CCC[C@H]1C(=O)N[C@@H](CO)C(=O)N[C@@H](CO)C(=O)NCC(=O)N[C@@H](C)C(=O)N1CCC[C@H]1C(=O)N1CCC[C@H]1C(=O)N1CCC[C@H]1C(=O)N[C@@H](CO)C(N)=O [Example 11]	0.089 nM	10.8 nM	9.97 nM	4.7 mL/h/kg	20 h	24.3 h	215.1 hr*kg*nmol/L/nmol	3.7 kg*nmol/L/nmol
CC[C@H](C)[C@H](NC(=O)[C@H](Cc1ccccc1)NC(=O)[C@H](C)NC(=O)C(C)(C)NC(=O)[C@H](CCC(N)=O)NC(=O)[C@H](C)NC(=O)[C@H](CCCCNC(=O)COCCOCCNC(=O)CC[C@H](NC(=O)CCCCCCCCCCCCCCCCCCC(=O)O)C(=O)O)NC(=O)[C@H](CCCCN)NC(=O)[C@H](CC(=O)O)NC(=O)[C@H](CC(C)C)NC(=O)[C@](C)(CC(C)C)NC(=O)[C@@H](NC(=O)[C@H](CO)NC(=O)[C@H](Cc1ccc(O)cc1)NC(=O)[C@H](CC(=O)O)NC(=O)[C@H](CO)NC(=O)[C@@H](NC(=O)[C@H](Cc1ccccc1)NC(=O)[C@@H](NC(=O)CNC(=O)[C@H](CCC(N)=O)NC(=O)C(C)(C)NC(=O)[C@@H](N)Cc1ccc(O)cc1)[C@@H](C)O)[C@@H](C)O)[C@@H](C)CC)C(=O)N[C@@H](CCC(=O)O)C(=O)N[C@@H](Cc1ccc(O)cc1)C(=O)N[C@@H](CC(C)C)C(=O)N[C@@H](CC(C)C)C(=O)N[C@@H](CCC(=O)O)C(=O)NCC(=O)NCC(=O)N1CCC[C@H]1C(=O)N[C@@H](CO)C(=O)N[C@@H](CO)C(=O)NCC(=O)N[C@@H](C)C(=O)N1CCC[C@H]1C(=O)N1CCC[C@H]1C(=O)N1CCC[C@H]1C(=O)N[C@@H](CO)C(N)=O [Example 12]		5.6 nM		5.1 mL/h/kg	24 h	26.5 h	197.1 hr*kg*nmol/L/nmol	3.7 kg*nmol/L/nmol
